In patent US20230144619A1, “SALT OF ARYLAMINOPURINE DERIVATIVE, PREPARATION METHOD THEREFOR AND USE THEREOF” (CSPC Zhongqi Pharmaceutical Technology (Shijiazhuang) Co., …, priority 2020, published 2023):
Converted amounts (≈) assume the structure as drawn.

Legend:
Assay type in all cases: physicochemical
[1] = Solubility test (UV spectrophotometer, saturated solutions shaken 24 hours); conditions: 25° C.; for Solubility, Water medium pH = 1.2: pH=1.2 hydrochloric acid solution; for Solubility, Water medium pH = 4.5: pH=4.5 phosphate buffer solution; for Solubility, Water medium pH = 6.8: pH=6.8 phosphate buffer solution; for Solubility, Water medium: water (purified water)
Procedure: Detection instrument: Ultraviolet spectrophotometer/Evolution 300
The following solutions with pH=1.2, pH=4.5, and pH=6.8 and water were used as the solvent, and the solvent preparation process was as follows:
(1) pH=1.2 hydrochloric acid solution: To 7.65 mL of hydrochloric acid was added 1000 mL of water, and the mixture was shaken uniformly to obtain the target solution.
(2) pH=4.5 phosphate buffer solution: 6.8 g of potassium dihydrogen phosphate was taken and diluted with water to 1000 mL, and the mixture was shaken uniformly to obtain the target solution.
(2) pH=6.8 phosphate buffer solution: 6.8 g of potassium dihydrogen phosphate and 0.896 g of sodium hydroxide were taken and diluted with water to 1000 mL, and the mixture was shaken uniformly to obtain the target solution.
(4) Water: purified water
Test tubes with stopper were taken, and 10 mL of dissolution media at various pH values were precisely added to the test tubes respectively, and excessive stock drugs were added until supersaturated solutions were formed. The adding amounts were recorded. The solutions were shaken uniformly, sealed with stoppers, and shaken for 24 hours in a shaker. 2 mL of solutions were taken out at different time points respectively, and centrifuged. The resulting supernatants were taken, filtered, and the subsequent filtrates were taken for later use.
The above-mentioned saturated solutions in different solvents were taken, and solvents were added to dilute the solutions to certain volumes. The absorbances were measured at a wavelength of 287 nm.
Preparation of a solution of the reference substance: an appropriate amount of the compound represented by Formula 1 was taken as the reference substance, and precisely weighed. A solvent was added to dissolve and dilute the reference compound to produce a solution containing about 10 μg of the compound represented by Formula 1 per 1 mL. The absorbance was measured at a wavelength of 287 nm to calculate the solubility.
The salts obtained in Examples 1 and 3-17 and the compound represented by Formula 1 were subjected to the solubility test in media and the test results were shown in the following table: […]

[2] = Accelerated stability test
Procedure: Appropriate amounts of the salt samples obtained from Examples 1 and 3-17 were placed at a temperature of 25±2° C. under 0%±5% RH in an open environment for 10 days and at a temperature of 40±2° C. under 75%±5% RH in an open environment for 10 days respectively to perform the accelerated tests, and the results were as follows: […]

Hygroscopicity test = conditions: 25±1° C., relative humidity 80%±2% (DVS, 80% RH)
Procedure: Detection instrument: XPE105DR
(1) A dry stoppered glass weighing bottle was taken, placed in a suitable constant-temperature desiccator at 25° C. 1° C. (with a saturated solution of ammonium chloride or ammonium sulfate in the lower part) or an artificial climate box (with the set temperature of 25° C.±1° C. and the relative humidity of 80%±2%) on the day before the test, and precisely weighed and recorded as the weight (m1).
(2) An appropriate amount of the test sample was taken and spread in the above-mentioned weighing bottle. The thickness of the test sample was generally about 1 mm, and the bottle was precisely weighed and recorded as the weight (m2).
(3) The stopper was removed to open the weighing bottle, and the opened weighing bottle and the stopper were placed under the above-mentioned constant temperature and humidity conditions for 24 hours.
(4) The opened weighing bottle was stoppered, precisely weighed, and recorded as the weight (m3).
Percentage increase in mass=(m3−m2)/(m2−m1)×100%
(5) The description of hygroscopicity characteristics and the definition for the weight gain due to hygroscopicity:
Deliquescence: Sufficient water was absorbed to form a liquid.
Very hygroscopic: the weight gain due to hygroscopicity was not less than 15%.
Hygroscopic: the weight gain due to hygroscopicity was less than 15% but not less than 2%.
Slightly hygroscopic: the weight gain due to hygroscopicity was less than 2% but not less than 0.2%.
Not or nearly not hygroscopic: the weight gain due to hygroscopicity was less than 0.2%.
Appropriate amounts of the salt samples obtained from Examples 1 and 3-17 were subjected to the hygroscopicity test at a temperature of 25±1° C. under a relative humidity of 80%±2%, and the results were as follows: […]

DSC and TGA tests = conditions: onset temperature
Procedure: 6. Differential Scanning Calorimetry-Thermogravimetric Analysis (DSC-TGA)
Detection instrument: NETZSCH STA 449F3
Temperature range: 20° C.-350° C.;
Heating rate: 10.0 (K/min);
7. Differential Scanning Calorimetry (DSC)
Detection instrument: NETZSCH DSC 214 Polyma
Temperature range: 20° C.-250° C.;
Heating rate: 5.0 (K/min);
8. Thermogravimetric Analysis (TGA)
Detection instrument: METTLER and SDT Q600
The salts obtained in Examples 1 and 3-17 and the compound represented by Formula 1 were subjected to the DSC and TGA tests in media, and the test results were shown in the following table: […]

[3] = Placed at 25 ± 2° C. under 0% ± 5% RH in an open environment for 10 days
[4] = Placed at 40 ± 2° C. under 75% ± 5% RH in an open environment for 10 days

SMILES	Solubility, Water medium pH = 1.2 [1] [mg/mL]	Solubility, Water medium pH = 4.5 [1] [mg/mL]	Solubility, Water medium pH = 6.8 [1] [mg/mL]	Solubility, Water medium [1] [mg/mL]	Appearance [2, 3]	Appearance [2, 4]	Hygroscopicity (Hygroscopicity test)	Weight gain due to hygroscopicity (Hygroscopicity test) [%]	TGA: starting to lose the acid (DSC and TGA tests)	TGA: starting to lose the water of crystallization (DSC and TGA tests)
CC(C)n1c(Nc2cccnc2)nc2cnc(Nc3ccc(N4CCN(C)CC4)cc3)nc21 [Example 10]	66.52	13.98	6.36	2.49 (≈ 5.61 mM)	Yellow solid	Yellow solid	Slightly hygroscopic (the weight gain due to hygroscopicity was less than 2% but not less than 0.2%.)	0.54	~170 °C (see FIG. 30)	crystallization at about 40° C.;
CC(C)n1c(Nc2cccnc2)nc2cnc(Nc3ccc(N4CCN(C)CC4)cc3)nc21 [Example 12]	42.39	2.70	0.14	3.09 (≈ 6.97 mM)	–	–	–	0.11	~140 °C (see FIG. 33)	crystallization at about 40° C.;
CC(C)n1c(Nc2cccnc2)nc2cnc(Nc3ccc(N4CCN(C)CC4)cc3)nc21 [Example 6]	54.70	14.59	12.05	9.68 (≈ 21.8 mM)	Yellow solid	Yellow solid	Slightly hygroscopic (the weight gain due to hygroscopicity was less than 2% but not less than 0.2%.)	1.02	~170 °C (see FIG. 26)	crystallization at about 40° C.;
CC(C)n1c(Nc2cccnc2)nc2cnc(Nc3ccc(N4CCN(C)CC4)cc3)nc21 [Example 9]	44.51	15.17	11.48	10.50 (≈ 23.7 mM)	–	–	Slightly hygroscopic (the weight gain due to hygroscopicity was less than 2% but not less than 0.2%.)	1.43	~170 °C (see FIG. 29)	crystallization at about 40° C.;
CC(C)n1c(Nc2cccnc2)nc2cnc(Nc3ccc(N4CCN(C)CC4)cc3)nc21 [Example 8]	36.41	14.36	10.46	9.74 (≈ 22 mM)	–	–	Slightly hygroscopic (the weight gain due to hygroscopicity was less than 2% but not less than 0.2%.)	1.43	~180 °C (see FIG. 28)	crystallization at about 40° C.;
CC(C)n1c(Nc2cccnc2)nc2cnc(Nc3ccc(N4CCN(C)CC4)cc3)nc21 [Example 5]	>1000	>1000	>1000	>1000	Liquid	Liquid	Very hygroscopic (the weight gain due to hygroscopicity was not less than 15%.)	19.62	~190 °C (see FIG. 25)	crystallization at about 40° C.;
CC(C)n1c(Nc2cccnc2)nc2cnc(Nc3ccc(N4CCN(C)CC4)cc3)nc21 [Example 16]	129.50	90.03	90.09	76.59 (≈ 173 mM)	–	–	Hygroscopic (the weight gain due to hygroscopicity was less than 15% but not less than 2%.)	7.67	~240 °C (See FIG. 40)	crystallization at about 40° C.;
CC(C)n1c(Nc2cccnc2)nc2cnc(Nc3ccc(N4CCN(C)CC4)cc3)nc21 [Example 15]	96.58	45.67	27.84	63.57 (≈ 143 mM)	Off-white solid	Off-white solid	Hygroscopic (the weight gain due to hygroscopicity was less than 15% but not less than 2%.)	2.59	~80 °C (see FIG. 39)	crystallization at about 40° C.;
CC(C)n1c(Nc2cccnc2)nc2cnc(Nc3ccc(N4CCN(C)CC4)cc3)nc21 [Example 11]	87.38	16.13	8.61	27.78 (≈ 62.6 mM)	Yellow solid	Yellow solid	Slightly hygroscopic (the weight gain due to hygroscopicity was less than 2% but not less than 0.2%.)	0.68	~220 °C (see FIG. 31)	crystallization at about 40° C.;
CC(C)n1c(Nc2cccnc2)nc2cnc(Nc3ccc(N4CCN(C)CC4)cc3)nc21 [Example 3]	360.00	207.53	153.30	212.73 (≈ 480 mM)	–	–	Hygroscopic (the weight gain due to hygroscopicity was less than 15% but not less than 2%.)	5.86	~120 °C (see FIG. 21)	crystallization at about 40° C.;
CC(C)n1c(Nc2cccnc2)nc2cnc(Nc3ccc(N4CCN(C)CC4)cc3)nc21 [Example 13]	59.71	8.42	1.12	5.06 (≈ 11.4 mM)	–	–	–	0.05	~140 °C (see FIG. 35)	crystallization at about 40° C.;
CC(C)n1c(Nc2cccnc2)nc2cnc(Nc3ccc(N4CCN(C)CC4)cc3)nc21 [Example 17]	33.29	21.64	31.39	16.51 (≈ 37.2 mM)	–	–	Slightly hygroscopic (the weight gain due to hygroscopicity was less than 2% but not less than 0.2%.)	1.34	~210 °C (see FIG. 41)	crystallization at about 40° C.;
